# Test results taken from PubChem BioAssay AID330 (DTP/NCI, 2004).
# Values joined by “and” are separate entries in the source; they are usually repeats but may differ in a detail not shown here. Equal entries are not always repeated. Inconclusive results and toxic doses are left out.
# Tested on: P388 leukemia ip, CD2F1 mice, survival T/C
# Test: NCI In Vivo Anticancer Drug Screen. Data for tumor model P388 Leukemia (intraperitoneal) in CD2F1 (CDF1) mice
# Conditions: endpoint: median survival time, higher = longer survival
# How it was run: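 Mice carrying the transplanted tumor received test compound or vehicle. Survival was recorded in each group, and the value is the treated-group measurement divided by that of the vehicle-treated control group.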
# [1] = dose: 6.25 mg/kg/injection, schedule: Q01DX009 (ip), vehicle: saline with Tween-80
# [2] = dose: 50.0 mg/kg/injection, schedule: Q01DX009 (ip), vehicle: saline
# [3] = dose: 100.0 mg/kg/injection, schedule: Q01DX009 (ip), vehicle: saline
# [4] = dose: 25.0 mg/kg/injection, schedule: Q01DX009 (ip), vehicle: Klucel (hydroxypropylcellulose) (HPC)
# [5] = dose: 50.0 mg/kg/injection, schedule: Q01DX009 (ip), vehicle: Klucel (hydroxypropylcellulose) (HPC)
# [6] = dose: 100.0 mg/kg/injection, schedule: Q01DX009 (ip), vehicle: Klucel (hydroxypropylcellulose) (HPC)
# [7] = dose: 50.0 mg/kg/injection, schedule: Q01DX005 (ip), vehicle: saline with Tween-80
# [8] = dose: 100.0 mg/kg/injection, schedule: Q01DX005 (ip), vehicle: saline with Tween-80
# [9] = dose: 200.0 mg/kg/injection, schedule: Q01DX005 (ip), vehicle: saline with Tween-80
# [10] = dose: 50.0 mg/kg/injection, schedule: Q01DX005 (ip), vehicle: Klucel (hydroxypropylcellulose) (HPC)
smiles,measurement,setting,value
CCCCCCCCCCCC1=C(O)C(=O)C=C(O)C1=O,T/C,[1],101 % of control
same,T/C,"dose: 12.5 mg/kg/injection, schedule: Q01DX009 (ip), vehicle: saline with Tween-80",106 % of control
same,T/C,"dose: 25.0 mg/kg/injection, schedule: Q01DX009 (ip), vehicle: saline with Tween-80",102 % of control
CCOC(=O)CCC(C(=O)c1cccnc1)c1ccccn1 (stereo not drawn),T/C,"dose: 100.0 mg/kg/injection, schedule: Q01DX001 (ip), vehicle: saline",104 % of control
same,T/C,"dose: 200.0 mg/kg/injection, schedule: Q01DX001 (ip), vehicle: saline",101 % of control
same,T/C,"dose: 400.0 mg/kg/injection, schedule: Q01DX001 (ip), vehicle: saline",99 % of control
O=C1CCC(CCl)(C(=O)O)O1 (stereo not drawn),T/C,[2],106 % of control
same,T/C,[3],106 % of control
same,T/C,"dose: 200.0 mg/kg/injection, schedule: Q01DX009 (ip), vehicle: saline",91 % of control
C1=CN2CC(c3ccccc3)=NNC2c2ccccc21 (stereo not drawn),T/C,"dose: 100.0 mg/kg/injection, schedule: Q04DX002 (ip), vehicle: Klucel (hydroxypropylcellulose) (HPC)",107 % of control
same,T/C,"dose: 200.0 mg/kg/injection, schedule: Q04DX002 (ip), vehicle: Klucel (hydroxypropylcellulose) (HPC)",99 % of control
C1CN2CN3CCN(CN1C3)C2,T/C,"dose: 6.25 mg/kg/injection, schedule: Q01DX009 (ip), vehicle: saline",108 % of control
same,T/C,[2],158 % of control
same,T/C,[3],168 % of control
CCn1c(=O)n(Cc2ccccc2)c(=O)c2ccccc21,T/C,"dose: 60.0 mg/kg/injection, schedule: Q01DX005 (ip), vehicle: saline with Tween-80",93 % of control
same,T/C,"dose: 120.0 mg/kg/injection, schedule: Q01DX005 (ip), vehicle: saline with Tween-80",93 % of control
same,T/C,"dose: 240.0 mg/kg/injection, schedule: Q01DX005 (ip), vehicle: saline with Tween-80",91 % of control
COc1ccc(C(CC(=O)c2ccccc2)[Se]c2ccccc2)cc1 (stereo not drawn),T/C,[4],105 % of control
same,T/C,[5],106 % of control
same,T/C,[6],105 % of control
COc1cc2c(cc1OC)NCC1COc3c(ccc(OC)c3OC)C1=N2 (stereo not drawn),T/C,[7],96 % of control
same,T/C,[8],88 % of control
same,T/C,[9],92 % of control
COc1cc2oc(=O)cc(C)c2cc1[N+](=O)[O-],T/C,"dose: 50.0 mg/kg/injection, schedule: Q01DX009 (ip), vehicle: suspension in saline",98 % of control
same,T/C,"dose: 100.0 mg/kg/injection, schedule: Q01DX009 (ip), vehicle: suspension in saline",95 % of control
same,T/C,"dose: 200.0 mg/kg/injection, schedule: Q01DX009 (ip), vehicle: suspension in saline",96 % of control
N#Cc1cn(C2OC(CO)C(O)C2O)c2ncnc(N)c12 (stereo not drawn),T/C,"dose: 0.05 mg/kg/injection, schedule: Q01DX009 (ip), vehicle: other",124 % of control
same,T/C,"dose: 0.1 mg/kg/injection, schedule: Q01DX009 (ip), vehicle: other",155 % of control
same,T/C,"dose: 0.13 mg/kg/injection, schedule: Q04DX003 (ip), vehicle: other",154 % of control
same,T/C,"dose: 0.15 mg/kg/injection, schedule: Q04DX003 (ip), vehicle: other",163 % of control
same,T/C,"dose: 0.2 mg/kg/injection, schedule: Q01DX009 (ip), vehicle: other",120 % of control
same,T/C,"dose: 0.2 mg/kg/injection, schedule: Q04DX003 (ip), vehicle: other",150 % of control
same,T/C,"dose: 0.4 mg/kg/injection, schedule: Q01DX009 (ip), vehicle: other",95 % of control
same,T/C,"dose: 1.0 mg/kg/injection, schedule: Q04DX003 (ip), vehicle: saline with Tween-80",165 % of control
same,T/C,"dose: 2.0 mg/kg/injection, schedule: Q04DX003 (ip), vehicle: saline with Tween-80",150 % of control
same,T/C,"dose: 4.0 mg/kg/injection, schedule: Q04DX003 (ip), vehicle: saline with Tween-80",95 % of control
same,T/C,"dose: 29.6 micrograms/kg/injection, schedule: Q04DX003 (ip), vehicle: other",110 % of control
same,T/C,"dose: 44.0 micrograms/kg/injection, schedule: Q04DX003 (ip), vehicle: other",120 % of control
same,T/C,"dose: 66.0 micrograms/kg/injection, schedule: Q04DX003 (ip), vehicle: other",153 % of control
C[CH2][Ge]([CH2]C)[O]C(=O)C(=O)[O][Ge]([CH2]C)[CH2]C,T/C,"dose: 12.5 mg/kg/injection, schedule: Q01DX005 (ip), vehicle: Klucel (hydroxypropylcellulose) (HPC)",100 % of control
same,T/C,"dose: 25.0 mg/kg/injection, schedule: Q01DX005 (ip), vehicle: Klucel (hydroxypropylcellulose) (HPC)",103 % of control
same,T/C,[10],118 % of control
Cc1[nH]c2ccc(N(C)C)cc2c(=O)c1CNCc1ccccc1,T/C,"dose: 1.56 mg/kg/injection, schedule: Q01DX009 (ip), vehicle: saline with Tween-80",114 % of control
same,T/C,"dose: 3.13 mg/kg/injection, schedule: Q01DX009 (ip), vehicle: saline with Tween-80",107 % of control
same,T/C,[1],103 % of control and 96 % of control
CCOC(=O)NC(=O)NC(=O)OCC,T/C,"dose: 100.0 mg/kg/injection, schedule: Q04DX003 (ip), vehicle: saline sonified",100 % of control
same,T/C,"dose: 200.0 mg/kg/injection, schedule: Q04DX003 (ip), vehicle: saline sonified",100 % of control
same,T/C,"dose: 400.0 mg/kg/injection, schedule: Q04DX003 (ip), vehicle: saline sonified",100 % of control
COC1C(N)C(OC2C(Oc3cccc4c(O)c5c(=O)oc6ccc(C)c7c(=O)oc(c34)c5c67)OC(C)C(O)C2(C)O)OC(C)C1O (stereo not drawn),T/C,"dose: 0.63 mg/kg/injection, schedule: Q01DX009 (ip), vehicle: other",183 % of control
same,T/C,"dose: 1.25 mg/kg/injection, schedule: Q01DX009 (ip), vehicle: other",198 % of control
same,T/C,"dose: 2.5 mg/kg/injection, schedule: Q01DX009 (ip), vehicle: other",202 % of control
same,T/C,"dose: 5.0 mg/kg/injection, schedule: Q01DX009 (ip), vehicle: other",276 % of control
CC12CCC(=O)N1C(C(=O)O)CS2 (stereo not drawn),T/C,"dose: 12.5 mg/kg/injection, schedule: Q04DX003 (ip), vehicle: saline",119 % of control
same,T/C,"dose: 25.0 mg/kg/injection, schedule: Q04DX003 (ip), vehicle: saline",99 % of control and 106 % of control
same,T/C,"dose: 50.0 mg/kg/injection, schedule: Q04DX003 (ip), vehicle: saline",102 % of control and 109 % of control and 97 % of control
same,T/C,"dose: 100.0 mg/kg/injection, schedule: Q04DX003 (ip), vehicle: saline",98 % of control and 123 % of control and 97 % of control
same,T/C,"dose: 200.0 mg/kg/injection, schedule: Q04DX003 (ip), vehicle: saline",107 % of control
same,T/C,"dose: 400.0 mg/kg/injection, schedule: Q04DX003 (ip), vehicle: saline",91 % of control
CCC(C)N(C)/N=N/c1nc[nH]c1C(N)=O (stereo not drawn),T/C,"dose: 100.0 mg/kg/injection, schedule: Q01DX009 (ip), vehicle: saline with Tween-80",115 % of control
same,T/C,"dose: 100.0 mg/kg/injection, schedule: Q04DX003 (ip), vehicle: saline with Tween-80",95 % of control
same,T/C,"dose: 200.0 mg/kg/injection, schedule: Q01DX009 (ip), vehicle: saline with Tween-80",105 % of control
same,T/C,"dose: 200.0 mg/kg/injection, schedule: Q04DX003 (ip), vehicle: saline with Tween-80",113 % of control
same,T/C,"dose: 400.0 mg/kg/injection, schedule: Q04DX003 (ip), vehicle: saline with Tween-80",113 % of control
CC(C)(C=C(c1ccccc1)c1ccccc1)C=C(c1ccccc1)c1ccccc1,T/C,[7],95 % of control
same,T/C,[8],98 % of control
same,T/C,[9],95 % of control
Nc1nc2ncc(CCNc3ccc(C(=O)NC(CCC(=O)O)C(=O)O)cc3)nc2c(=O)[nH]1 (stereo not drawn),T/C,"dose: 12.5 mg/kg/injection, schedule: Q01DX009 (ip), vehicle: Klucel (hydroxypropylcellulose) (HPC)",98 % of control
same,T/C,[4],103 % of control
same,T/C,[5],107 % of control
same,T/C,[6],93 % of control
N#Cc1ccc(C(=O)C=C(C(F)(F)F)C(F)(F)F)cc1,T/C,"dose: 3.13 mg/kg/injection, schedule: Q01DX009 (ip), vehicle: other",115 % of control
same,T/C,"dose: 5.56 mg/kg/injection, schedule: Q01DX009 (ip), vehicle: other",120 % of control
CCCCN(CCCC)CCNc1ccc(C)c2sc3ccc([N+](=O)[O-])cc3c(=O)c12,T/C,[10],100 % of control
same,T/C,"dose: 100.0 mg/kg/injection, schedule: Q01DX005 (ip), vehicle: Klucel (hydroxypropylcellulose) (HPC)",99 % of control
same,T/C,"dose: 200.0 mg/kg/injection, schedule: Q01DX005 (ip), vehicle: Klucel (hydroxypropylcellulose) (HPC)",100 % of control
CC(NCCNC(C)C(=O)O)C(=O)O (stereo not drawn),T/C,"dose: 50.0 mg/kg/injection, schedule: Q01DX005 (ip), vehicle: saline",101 % of control
same,T/C,"dose: 100.0 mg/kg/injection, schedule: Q01DX005 (ip), vehicle: saline",103 % of control
same,T/C,"dose: 200.0 mg/kg/injection, schedule: Q01DX005 (ip), vehicle: saline",100 % of control
